Assays:
[1] = method code SF-AS, from DOI: 10.1128/aac.27.1.84, PMID: 2580479
[2] = method code SF-AS, from DOI: 10.1016/s0045-6535(98)00368-3; conditions: for logD: pH 2.0
[3] = method code SF-AS, from DOI: 10.1007/s001289900104, PMID: 8661852
[4] = method code SF-HPLC, from PMID: 1293941
[5] = method code SF-AS, from DOI: 10.1007/bf01964075; conditions: pH 2.1
[6] = not given; remark: listed apart in the source
[7] = method code SF-AS, from DOI: 10.1016/j.ejps.2010.09.003, PMID: 20854904; conditions: pH 10.0
[8] = method code SF-AS, from DOI: 10.1016/j.bioorg.2006.09.003, PMID: 17078995; conditions: pH 7.4
[9] = not given; remark: listed apart in the source
[10] = method code SF-AS, from DOI: 10.1002/em.2850200210, PMID: 1505530
[11] = method code SF-AS, from Jha, T.; Debnath, A.; Mazumdar, A.; Sengupta, C.; De, A. (1986). Hansch analysis of antineoplastic agents, 5-N-substituted-2-p-substituted benzenesulfonyl-L-glutamines. Ind. J. Chem., Sect. B, …
[12] = method code SF-AS, from DOI: 10.1002/jps.2600630206, PMID: 4204981
[13] = not given; remark: listed apart in the source
[14] = method code SF, from DOI: 10.1248/yakushi1947.96.10_1169, PMID: 1033993; conditions: pH 0.7
[15] = not given; remark: listed apart in the source
[16] = not given; remark: listed apart in the source
[17] = method code SF, from DOI: 10.1016/s0045-6535(97)00338-x
[18] = not given; remark: listed apart in the source
[19] = method code SF-AS, from DOI: 10.1007/bf01648987
[20] = from Rich, R. (1990). Partition coefficients of quinones and their relation to biochemical reactivity. In Lenaz, G. (Ed.), Highlights in Ubiquinone Research: Proceedings of the International Symposium, …

Which logP [1] does the source give for CCN1CCN(C(=O)N[C@@H](C(=O)N[C@@H]2C(=O)N3[C@@H]2SC(C)(C)[C@@H]3C(=O)O)c2ccccc2)C(=O)C1=O here?
Its logP is 0.5.

Which logD [2] does the source give for COc1cc(OC)nc(NC(=O)NS(=O)(=O)c2ccccc2Cl)n1 here?
Its logD is 1.95.

Which logP [3] does the source give for Clc1ncc(-c2ncncn2)c(Cl)n1 here?
Its logP is 1.32.

Which logP [4] does the source give for CCCCCCOC(=O)c1ccc(N)cc1 here?
Its logP is 3.95.

For CCCCCCCOC(=O)c1ccc(N)cc1, which logP [4] is on record?
The logP was 4.5.

With CNC(=O)[C@H](Cc1ccc(O)cc1)NC(C)=O as the compound, how does the logD [5] read?
Its logD is -0.32.

For COC(=O)CS(=O)(=O)c1ccc([N+](=O)[O-])cc1, which logP is on record?
Its logP is 0.92.

For c1ccc2nn(C34CC5CC(CC(C5)C3)C4)nc2c1, which logP [6] is on record?
Its logP is 4.3.

With O=C(CCN1CCCC1)c1ccccc1 as the compound, how does the logD [7] read?
The logD was 1.91.

Which logD [8] does the source give for CC(=O)OCCc1ccc(O)c(O)c1 here?
The logD was 0.95.

Which logD [8] does the source give for CCCC(=O)OCCc1ccc(O)c(O)c1 here?
The logD was 1.77.

For O=C(Oc1ccc(-c2ccccc2)cc1)C1OC(O)C(O)C(O)C1O (stereo not drawn), which logP [9] is on record?
Its logP is 1.79.

For O=[N+]([O-])c1cccc2c([N+](=O)[O-])cccc12, which logP [10] is on record?
The logP was 2.58.

Which logP [11] does the source give for CCNC(=O)CCC(NS(=O)(=O)c1ccccc1)C(=O)O (stereo not drawn) here?
Its logP is 0.38.

For O=C(O)C1CCc2cc(Cl)ccc2O1 (stereo not drawn), which logP [12] is on record?
The logP was 2.4.

Which logP [11] does the source give for CCCCCNC(=O)CCC(NS(=O)(=O)c1ccccc1)C(=O)O (stereo not drawn) here?
The logP was -0.16.

For c1ccc2c(c1)cnn2C12CC3CC(CC(C3)C1)C2, which logP [6] is on record?
The logP was 4.33.

With O=C(O)C1COc2ccccc2O1 (stereo not drawn) as the compound, how does the logP [12] read?
The logP was 1.4.

Which logP [11] does the source give for CCCNC(=O)CCC(NS(=O)(=O)c1ccccc1)C(=O)O (stereo not drawn) here?
Its logP is -0.08.

Which logP [13] does the source give for Cc1cc(Cl)c(Cl)cc1Cc1c(Cl)cccc1Cl here?
The logP was 6.03.

For CCCC(=O)OCCc1ccc(O)c(OC)c1, which logD [8] is on record?
Its logD is 2.54.

For CCCC(C)C1(CC)C(=O)NC(=O)N(C)C1=O (stereo not drawn), which logD [14] is on record?
The logD was 2.45.

Which logP [15] does the source give for c1ccc(CN2CCOCC2)cc1 here?
Its logP is 1.58.

Which logP [16] does the source give for O=C(O)CCCOc1cccc2ccccc12 here?
Its logP is 3.5.

With [N-]=[N+]=Nc1nc(N=[N+]=[N-])nc(Nc2ccccc2)n1 as the compound, how does the logP [3] read?
The logP was 3.88.

Which logP [17] does the source give for O=S(=O)(CBr)c1ccc(F)cc1 here?
The logP was 1.74.

For c1cnn(C23CC4CC(CC(C4)C2)C3)c1, which logP [6] is on record?
The logP was 3.05.

With O=C(O)CCCCOc1cccc2ccccc12 as the compound, how does the logP [16] read?
The logP was 4.

With CC(C(=O)O)c1ccc(N2CC=CC2)c(Cl)c1 (stereo not drawn) as the compound, how does the logP [18] read?
The logP was 3.58.

For COC(=O)c1ccccc1S(=O)(=O)NC(=O)Nc1nc(OC)cc(OC)n1, which logD [2] is on record?
The logD was 1.78.

Which logD [14] does the source give for CCC1(CC)C(=O)NC(=O)N(C)C1=O here?
Its logD is 1.15.

For CN(C)c1ccccc1, which logP [19] is on record?
Its logP is 2.29.

Which logP [16] does the source give for OCCOc1cccc2ccccc12 here?
The logP was 2.5.

Which logP [2] does the source give for NS(=O)(=O)c1ccccc1Cl here?
Its logP is 0.79.

Which logP [13] does the source give for Cc1c(Cl)ccc(Cc2ccc(Cl)cc2Cl)c1Cl here?
The logP was 6.85.

With c1ccc2c(c1)ncn2C12CC3CC(CC(C3)C1)C2 as the compound, how does the logP [6] read?
The logP was 3.64.

With CO[C@@]1(NC(=O)Cc2cccs2)C(=O)N2C(C(=O)O)=C(COC(N)=O)CS[C@@H]21 as the compound, how does the logP [1] read?
Its logP is -0.02.

With CNC(=O)[C@@H](NC(C)=O)C(C)C as the compound, how does the logD [5] read?
Its logD is -0.35.

With CC(=O)OCC1=C(C(=O)O)N2C(=O)[C@@H](NC(=O)CC#N)[C@H]2SC1 as the compound, how does the logP [1] read?
The logP was -0.45.

For Cc1cc(O)ccc1O, which logP [20] is on record?
The logP was 0.91.

For CCn1ccc(NS(=O)(=O)c2ccc(N)cc2)nc1=O, which logP [18] is on record?
The logP was -0.2.

Which logP [12] does the source give for O=C(O)C1Cc2cc(Cl)ccc2O1 (stereo not drawn) here?
Its logP is 2.11.

For Oc1cccc(O)c1, which logD [5] is on record?
The logD was 0.83.

With CC1=CC(=O)C=C(C)C1=O as the compound, how does the logP [20] read?
Its logP is 0.95.

With Cn1nnnc1SCC1=C(C(=O)O)N2C(=O)[C@@H](NC(=O)CSCC#N)[C@H]2SC1 as the compound, how does the logD ([1]; pH 2.0) read?
The logD was -0.62.

With O=[N+]([O-])c1ccc2c(c1)Cc1cc([N+](=O)[O-])ccc1-2 as the compound, how does the logP [10] read?
The logP was 3.35.

Which logP [6] does the source give for c1cn(C23CC4CC(CC(C4)C2)C3)cn1 here?
Its logP is 2.9.

With CN(C)CCC(=O)c1ccccc1 as the compound, how does the logD [7] read?
Its logD is 1.77.

For COC(=O)CS(=O)c1ccccc1[N+](=O)[O-] (stereo not drawn), which logP is on record?
Its logP is 0.98.

Which logP [9] does the source give for Cc1ccc(OC(=O)C2OC(O)C(O)C(O)C2O)cc1 (stereo not drawn) here?
Its logP is 0.37.

Which logP [9] does the source give for COc1ccc(OC(=O)C2OC(O)C(O)C(O)C2O)cc1 (stereo not drawn) here?
Its logP is -0.01.

Which logP [19] does the source give for CCOC(=O)/C=C/c1ccccc1 here?
Its logP is 2.91.

For COC(=O)c1ccccc1S(N)(=O)=O, which logP [2] is on record?
Its logP is 0.01.
